Experiments:
WT TOP = biological target: T1, WT TOP (Rattus norvegicus, UniProt P24155); test: Inhibition constant of JA-2, continuous assay with QFS, WT TOP; assay type: biochemical; details: substrate QFS, 37 °C, 50 mM Tris-HCl pH 7.4, 100 mM NaCl, 0.5 mM DTT
T1 construct: made in house; host or cells: Escherichia coli BL21 (DE3), pET26b
Method: (§1) WT TOP and mutant activities were monitored spectrofluorometrically in a Shimadzu RF-5301PC spectrofluorometer using the FRET peptide QFS (Mca-Pro-Leu-Gly-Pro-D-Lys (Dnp)-OH) as substrate, with excitation and emission wavelengths of 320 and 420 nm, respectively. TOP and its mutants were pre-activated by incubation with 0.5 mM DTT for 5 min at 37 °C. The concentration of the peptide solutions was determined by measuring the absorption of the 2,4-dinitrophenyl group at 365 nm (ε = 17,300 M^−1cm^−1). The kinetic parameters of peptide hydrolysis were determined at 37 °C in 50 mM Tris-HCl buffer, pH 7.4, containing 100 mM NaCl. […] The reaction was monitored continuously via the fluorescence of the released product. The rate of increase in fluorescence was converted into moles of substrate hydrolyzed per second based on the fluorescence curves of standard peptide solutions before and after total enzymatic hydrolysis. […] An empirical equation was used to correct for the inner-filter effect, and the kinetic parameters were calculated according to Wilkinson and by using Eadie–Hofstee plots. […]
(§2) Inhibition constants were determined using the TOP inhibitor JA-2 (N-[1-(R,S)-carboxy-3-phenylpropyl]Ala-Aib-Tyr-p-aminobenzoate). The constants were determined in a continuous assay using the FRET peptide QFS as substrate. […]

TOP^-TrpW390/Y224pNF [1] = biological target: T2, TOP^-TrpW390/Y224pNF (Rattus norvegicus, UniProt P24155, W124F/W335F/W511F/W513F/W614F/Y224F); test: Inhibition constant of JA-2, continuous assay with QFS, TOP^-TrpW390/Y224pNF; assay type: biochemical; details: substrate QFS, 37 °C, 50 mM Tris-HCl pH 7.4, 100 mM NaCl, 0.5 mM DTT
T2 construct: made in house; host or cells: Escherichia coli BL21 (DE3), pET26b + pACYC184 (orthogonal tRNA/synthetase pair for pNF)
T2 sequence (P24155 whole entry W124F/Y224F/W335F/W511F/W513F/W614F): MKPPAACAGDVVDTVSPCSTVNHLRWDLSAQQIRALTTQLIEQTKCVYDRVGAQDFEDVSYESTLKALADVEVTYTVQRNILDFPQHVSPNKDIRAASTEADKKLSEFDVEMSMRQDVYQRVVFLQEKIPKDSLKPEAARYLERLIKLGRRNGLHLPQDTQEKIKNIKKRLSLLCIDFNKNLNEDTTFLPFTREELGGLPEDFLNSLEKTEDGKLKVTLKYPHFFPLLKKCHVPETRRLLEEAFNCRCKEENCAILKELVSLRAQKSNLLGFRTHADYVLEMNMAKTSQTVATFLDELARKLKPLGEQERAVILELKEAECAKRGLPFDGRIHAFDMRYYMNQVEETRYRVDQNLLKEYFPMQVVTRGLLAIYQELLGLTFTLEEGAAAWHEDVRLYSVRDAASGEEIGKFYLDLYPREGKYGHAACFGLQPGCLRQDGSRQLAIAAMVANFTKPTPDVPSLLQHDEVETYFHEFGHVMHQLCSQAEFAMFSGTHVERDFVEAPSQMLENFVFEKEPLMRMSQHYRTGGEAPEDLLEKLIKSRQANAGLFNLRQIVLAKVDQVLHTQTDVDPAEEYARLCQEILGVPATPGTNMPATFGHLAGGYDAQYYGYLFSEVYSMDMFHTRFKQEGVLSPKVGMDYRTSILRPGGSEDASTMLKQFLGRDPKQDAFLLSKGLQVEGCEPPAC
Method: as §1, §2

TOP^-TrpW390 = biological target: T3, TOP^-TrpW390 (Rattus norvegicus, UniProt P24155, W124F/W335F/W511F/W513F/W614F); test: Inhibition constant of JA-2, continuous assay with QFS, TOP^-TrpW390; assay type: biochemical; details: substrate QFS, 37 °C, 50 mM Tris-HCl pH 7.4, 100 mM NaCl, 0.5 mM DTT
T3 construct: made in house; host or cells: Escherichia coli BL21 (DE3), pET26b
T3 sequence (P24155 whole entry W124F/W335F/W511F/W513F/W614F): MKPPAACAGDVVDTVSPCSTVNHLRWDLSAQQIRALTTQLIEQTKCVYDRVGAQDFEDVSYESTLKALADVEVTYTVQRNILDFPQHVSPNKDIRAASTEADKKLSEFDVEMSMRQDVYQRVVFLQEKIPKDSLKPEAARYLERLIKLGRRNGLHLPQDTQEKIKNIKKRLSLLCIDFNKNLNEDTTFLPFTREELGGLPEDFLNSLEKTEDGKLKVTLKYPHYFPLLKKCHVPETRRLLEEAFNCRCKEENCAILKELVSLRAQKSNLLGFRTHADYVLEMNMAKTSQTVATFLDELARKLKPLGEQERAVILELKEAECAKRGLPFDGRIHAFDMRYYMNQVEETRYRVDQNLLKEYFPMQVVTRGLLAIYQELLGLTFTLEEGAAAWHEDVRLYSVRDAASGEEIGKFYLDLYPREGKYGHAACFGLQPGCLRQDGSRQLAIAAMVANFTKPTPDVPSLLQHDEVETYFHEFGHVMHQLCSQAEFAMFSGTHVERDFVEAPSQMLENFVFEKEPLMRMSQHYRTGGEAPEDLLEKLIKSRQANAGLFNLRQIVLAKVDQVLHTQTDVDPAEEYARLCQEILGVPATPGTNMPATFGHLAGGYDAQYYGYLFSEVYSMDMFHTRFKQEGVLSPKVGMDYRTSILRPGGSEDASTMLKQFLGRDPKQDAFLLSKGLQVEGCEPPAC
Method: as §1, §2

TOP^-TrpW390/Y224pNF [2] = biological target: T2, TOP^-TrpW390/Y224pNF; test: Protein fluorescence (Trp-pNF FRET) assay in presence of JA-2, TOP^-TrpW390/Y224pNF
TOP^-TrpW390/L215pNF [3] = biological target: T4, TOP^-TrpW390/L215pNF (Rattus norvegicus, UniProt P24155, L215F/W124F/W335F/W511F/W513F/W614F); test: Protein fluorescence (Trp-pNF FRET) assay in presence of JA-2, TOP^-TrpW390/L215pNF
T4 construct: made in house; host or cells: Escherichia coli BL21 (DE3), pET26b + pACYC184 (orthogonal tRNA/synthetase pair for pNF)
T4 sequence (P24155 whole entry W124F/L215F/W335F/W511F/W513F/W614F): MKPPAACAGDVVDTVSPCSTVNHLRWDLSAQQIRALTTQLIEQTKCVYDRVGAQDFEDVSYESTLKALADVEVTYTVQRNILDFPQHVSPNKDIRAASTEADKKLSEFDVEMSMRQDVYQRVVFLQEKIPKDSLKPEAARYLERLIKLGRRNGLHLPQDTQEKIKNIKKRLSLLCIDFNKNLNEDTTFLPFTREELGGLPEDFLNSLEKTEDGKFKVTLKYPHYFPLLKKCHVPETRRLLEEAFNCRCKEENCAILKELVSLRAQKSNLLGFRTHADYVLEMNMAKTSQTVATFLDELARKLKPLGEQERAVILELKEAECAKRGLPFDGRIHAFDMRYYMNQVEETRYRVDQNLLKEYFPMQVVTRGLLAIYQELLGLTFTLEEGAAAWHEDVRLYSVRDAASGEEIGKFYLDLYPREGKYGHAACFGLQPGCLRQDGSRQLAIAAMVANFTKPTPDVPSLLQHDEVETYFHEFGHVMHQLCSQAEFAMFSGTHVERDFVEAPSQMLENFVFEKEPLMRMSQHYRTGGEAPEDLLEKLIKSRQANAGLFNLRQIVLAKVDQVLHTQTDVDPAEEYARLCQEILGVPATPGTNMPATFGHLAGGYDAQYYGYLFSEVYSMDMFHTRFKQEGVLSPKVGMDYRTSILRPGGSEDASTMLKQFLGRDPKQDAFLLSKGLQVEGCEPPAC

TOP^-TrpW390/L182pNF [4] = biological target: T5, TOP^-TrpW390/L182pNF (Rattus norvegicus, UniProt P24155, L182F/W124F/W335F/W511F/W513F/W614F); test: Protein fluorescence (Trp-pNF FRET) assay in presence of JA-2, TOP^-TrpW390/L182pNF
T5 construct: made in house; host or cells: Escherichia coli BL21 (DE3), pET26b + pACYC184 (orthogonal tRNA/synthetase pair for pNF)
T5 sequence (P24155 whole entry W124F/L182F/W335F/W511F/W513F/W614F): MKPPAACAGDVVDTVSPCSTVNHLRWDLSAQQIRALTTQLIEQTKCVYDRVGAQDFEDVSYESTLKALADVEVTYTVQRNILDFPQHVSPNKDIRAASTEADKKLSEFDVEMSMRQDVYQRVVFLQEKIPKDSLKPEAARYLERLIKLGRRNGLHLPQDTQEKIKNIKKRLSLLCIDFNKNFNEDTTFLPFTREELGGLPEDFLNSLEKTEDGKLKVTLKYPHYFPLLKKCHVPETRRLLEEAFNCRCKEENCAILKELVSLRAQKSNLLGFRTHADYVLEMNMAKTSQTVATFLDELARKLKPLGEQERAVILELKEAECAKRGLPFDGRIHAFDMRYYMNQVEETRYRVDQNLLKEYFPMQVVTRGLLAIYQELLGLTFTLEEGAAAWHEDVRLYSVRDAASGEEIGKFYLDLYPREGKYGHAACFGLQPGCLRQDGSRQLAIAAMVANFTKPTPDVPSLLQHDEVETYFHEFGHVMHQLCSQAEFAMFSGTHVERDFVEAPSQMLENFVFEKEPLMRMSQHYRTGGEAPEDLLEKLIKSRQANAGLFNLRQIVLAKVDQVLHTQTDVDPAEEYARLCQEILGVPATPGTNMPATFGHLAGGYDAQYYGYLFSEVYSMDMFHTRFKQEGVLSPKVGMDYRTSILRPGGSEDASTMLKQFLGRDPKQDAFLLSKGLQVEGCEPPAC

TOP^-TrpW390/L182pNF [5] = biological target: T5, TOP^-TrpW390/L182pNF; test: Inhibition constant of JA-2, continuous assay with QFS, TOP^-TrpW390/L182pNF; assay type: biochemical; details: substrate QFS, 37 °C, 50 mM Tris-HCl pH 7.4, 100 mM NaCl, 0.5 mM DTT
Method: as §1, §2

TOP^-TrpW390/L215pNF [6] = biological target: T4, TOP^-TrpW390/L215pNF; test: Inhibition constant of JA-2, continuous assay with QFS, TOP^-TrpW390/L215pNF; assay type: biochemical; details: substrate QFS, 37 °C, 50 mM Tris-HCl pH 7.4, 100 mM NaCl, 0.5 mM DTT
Method: as §1, §2

TOP^-TrpW390/F178pNF [7] = biological target: T6, TOP^-TrpW390/F178pNF (Rattus norvegicus, UniProt P24155, W124F/W335F/W511F/W513F/W614F); test: Protein fluorescence (Trp-pNF FRET) assay in presence of JA-2, TOP^-TrpW390/F178pNF
T6 construct: made in house; host or cells: Escherichia coli BL21 (DE3), pET26b + pACYC184 (orthogonal tRNA/synthetase pair for pNF)
T6 sequence (P24155 whole entry W124F/W335F/W511F/W513F/W614F): as the sequence (P24155 whole entry W124F/W335F/W511F/W513F/W614F) above

TOP^-TrpW390/F178pNF [8] = biological target: T6, TOP^-TrpW390/F178pNF; test: Inhibition constant of JA-2, continuous assay with QFS, TOP^-TrpW390/F178pNF; assay type: biochemical; details: substrate QFS, 37 °C, 50 mM Tris-HCl pH 7.4, 100 mM NaCl, 0.5 mM DTT
Method: as §1, §2

[9] = 13.4 µM JA-2, 0.5 µM TOP protein, 37 °C, 50 mM Tris-HCl pH 7.4, 100 mM NaCl, 0.5 mM DTT
[10] = 13.4 µM JA-2, calculated using Equation (1), R0 = 15.8 Å

T1 sequence (P24155 whole entry): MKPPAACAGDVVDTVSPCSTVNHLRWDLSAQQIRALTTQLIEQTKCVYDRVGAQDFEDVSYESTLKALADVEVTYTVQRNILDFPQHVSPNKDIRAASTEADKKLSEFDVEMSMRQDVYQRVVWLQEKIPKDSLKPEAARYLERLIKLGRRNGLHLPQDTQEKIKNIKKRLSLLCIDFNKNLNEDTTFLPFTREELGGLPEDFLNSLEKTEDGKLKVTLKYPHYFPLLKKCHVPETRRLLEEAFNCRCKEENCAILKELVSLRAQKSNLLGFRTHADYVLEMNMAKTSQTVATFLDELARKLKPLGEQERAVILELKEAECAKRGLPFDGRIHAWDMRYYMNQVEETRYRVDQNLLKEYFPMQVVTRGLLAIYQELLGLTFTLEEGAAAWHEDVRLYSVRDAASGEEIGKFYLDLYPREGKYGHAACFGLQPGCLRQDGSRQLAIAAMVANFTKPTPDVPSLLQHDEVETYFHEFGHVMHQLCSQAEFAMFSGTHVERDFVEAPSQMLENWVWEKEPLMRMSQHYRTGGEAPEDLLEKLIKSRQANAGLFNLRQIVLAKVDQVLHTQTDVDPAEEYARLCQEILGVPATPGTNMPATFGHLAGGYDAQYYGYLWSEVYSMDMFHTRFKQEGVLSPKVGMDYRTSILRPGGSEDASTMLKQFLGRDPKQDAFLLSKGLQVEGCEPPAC

Question: With `C[C@H](NC(CCc1ccccc1)C(=O)O)C(=O)NC(C)(C)C(=O)N[C@@H](Cc1ccc(O)cc1)C(=O)Nc1ccc(C(=O)O)cc1` (stereo partly drawn) [JA-2, N-[1-(R,S)-carboxy-3-phenylpropyl]Ala-Aib-Tyr-p-aminobenzoate] as the molecule, how does the Ki (WT TOP) read?
Answer: Its Ki is 32 ± 1 nM.

Question: And the Ki (TOP^-TrpW390/Y224pNF [1])?
Answer: Its Ki is 1160 ± 60 nM.

Question: What about the Ki (TOP^-TrpW390) of the same molecule?
Answer: The Ki was 750 ± 40 nM.

Question: What about the “FRET Efficiency, +JA-2” value (TOP^-TrpW390/Y224pNF [2]; [9]) of the same molecule?
Answer: The value was 0.30 ± 0.02.

Question: And the “D-A Distance, +JA-2” value (TOP^-TrpW390/Y224pNF [2]; [10])?
Answer: Its value is 18 Å.

Question: What about the “FRET Efficiency, +JA-2” value (TOP^-TrpW390/L215pNF [3]; [9]) of the same molecule?
Answer: The value was 0.10 ± 0.005.

Question: What about the “D-A Distance, +JA-2” value (TOP^-TrpW390/L215pNF [3]; [10]) of the same molecule?
Answer: The value was 23 Å.

Question: And the “FRET Efficiency, +JA-2” value (TOP^-TrpW390/L182pNF [4]; [9])?
Answer: Its value is 0.24 ± 0.02.

Question: What about the “D-A Distance, +JA-2” value (TOP^-TrpW390/L182pNF [4]; [10]) of the same molecule?
Answer: The value was 19 Å.

Question: And the Ki (TOP^-TrpW390/L182pNF [5])?
Answer: Its Ki is 740 ± 60 nM.

Question: What about the Ki (TOP^-TrpW390/L215pNF [6]) of the same molecule?
Answer: The Ki was 870 ± 50 nM.

Question: What about the “FRET Efficiency, +JA-2” value (TOP^-TrpW390/F178pNF [7]; [9]) of the same molecule?
Answer: Its value is 0.150 ± 0.009.

Question: And the “D-A Distance, +JA-2” value (TOP^-TrpW390/F178pNF [7]; [10])?
Answer: Its value is 21 Å.

Question: What about the Ki (TOP^-TrpW390/F178pNF [8]) of the same molecule?
Answer: The Ki was 1230 ± 80 nM.
